This is an account of results in EP0037777A1, “Process for preparation of cycloalcoyl propanol amines useful as medicine” (PIERRE FABRE S.A., priority 1980, dated 1981).

Molecules are shown by their SMILES. In brackets after ≈: the same amount, converted by molar mass. Counter-ions that a name gives are not always drawn.

The data set is described as follows: Solubility. In kind it is physicochemical. Conditions: for Solubilités : soluble dans le diméthyl sulfoxyde: in dimethyl sulfoxide (DMSO); for solubility: in water, read-out: Solubilités : soluble dans l'eau.

With `CC1CCCCC1OCC(O)CNC(C)(C)C` (centres unmarked) [Exemple 1, tertiobutylamino-3 (méthyl-2 cyclohexyloxy)-1 propanol-2, maléate], the “Solubilités : soluble dans le diméthyl sulfoxyde” value (from here on “Solubilités ”) is 15% and the solubility stood at 100 mg/mL (≈ 411 mM).

For `CC(C)(C)NCC(O)COCC1CCCCC1` (centres unmarked) [Exemple 5, tertiobutylamino-3 cyclohexyl méthoxy-1, propanol-2, maléate], the “Solubilités ” value came out at 10% and the solubility is 25 mg/mL (≈ 103 mM).

In the case of `C#CC(C)(C)NCC(O)COC1CCCCC1` (centres unmarked) [Exemple 3, (diméthyl-1,1 propyne-2 yl-1) amino-3, cyclohexyloxy-1 propanol-2 oxalate], the solubility was 20 mg/mL.

On to `CC(C)(C)NCC(O)COCCC1=CCC2CC1C2(C)C` (centres unmarked) [Exemple 6, tertiobutylamino-3 [(diméthyl-6-6, bicyclo (3,1,1)hepten-2 yl)-2 éthoxy7-1 propanol-2, maléate], for which the “Solubilités ” value is on record as 10% and the solubility was found to be 20 mg/mL (≈ 67.7 mM).

For the compound `CC(C)NCC(O)COCC1CCCCC1` (centres unmarked) [Exemple 4, isopropylamino-3, cyclohexyl méthoxy-1 propanol-2 maléate], the “Solubilités ” value is recorded as 18% and the solubility was determined as 100 mg/mL (≈ 436 mM).

With `CC(C)(C)NCC(O)COCC1CC=CCC1` (centres unmarked) [Exemple 8, tertiobutylamino-3 (cyclohexen-3 yl-1) méthoxy-1 propanol-2, maléate], the “Solubilités ” value came to 15% and the solubility was 100 mg/mL (≈ 414 mM).
